Data set [1] relates to GK rats. The data set is described as follows: NFBG and FBG levels in GK rats, 6-week oral treatment. It counts as in vivo, rat. To be noted: during 6-week treatment, TB-2 33.3, BBR 66.7, TB-2+BBR 100, metformin 200 mg/kg/day. As for the experimental part:
(§1) Four-week-old male GK rats were fed a high-fat diet, and age-matched non-diabetic Wistar rats were fed standard chow as the control group. Under these dietary conditions, blood glucose was estimated each week for 7 weeks in 12-h fasted rats using a portable glucometer (One Touch Sure Step Meter, Johnson & Johnson, United States) by drawing the blood from the tail vein. GK rats with fasting blood glucose levels (FBG) above 16.7 mM were considered as diabetic rats, and only uniformly diabetic rats were used in this study. […] All the drugs were suspended in 0.5% carboxymethylcellulose sodium (CMC-Na) solution for oral gavage (10 ml/kg) once per day (at 9:00) for 6 weeks. Simultaneously, the Wistar and vehicle groups received vehicle over the treatment period. Food consumption and body weight were measured every week throughout the experimental periods. Non-fasting blood glucose (NFBG) levels were determined by collecting blood samples from the tail vein (at 9:00), and FBG levels were determined after a 6-h fast (at 15:00) on days 0, 7, 14, 21, and 42. On day 28, an oral glucose tolerance test (OGTT) was performed after an overnight fast. […] On day 42, the rats were anesthetized with urethane (1.4 g/kg, dissolved in saline) after an overnight fast and were sacrificed to collect the liver, kidney, heart, and spleen. The organs were weighed after washing with saline and drying to calculate the organ coefficient, namely, the ratio between the weight of organs and the body in each rat.

The test system of data set [2] is GK rats. As to the kind of experiment: Oral glucose tolerance test (OGTT) in GK rats on day 28. Particulars: after 4 weeks of treatment, glucose 2 g/kg oral. It counts as in vivo, rat. As for the experimental part: as §1
The nature of data set [3]: Body weight, food intake, organ coefficients and side effects in GK rats. It counts as in vivo, rat. As for the experimental part:
as §1

The nature of data set [4]: Transport in Caco-2 cells. It counts as in vitro ADME, human. To be noted: human. As for the experimental part:
The culture medium was changed every other day for the first 7 days and then daily for the next 14 days. […] Prior to the transport experiments, the cell monolayers were washed three times with HBSS at 37°C. […] At the same time, the corresponding opposite side was filled with medium as the receiving chamber. After incubation for 30, 60, 90, and 120 min, 250-μl aliquots of the medium was taken from the receiving chamber at each time point, and prepared for analysis by HPLC–MS/MS. […] where (ΔQ/Δt) is the linear slope of the drug concentration in the receptor chamber over time, A represents the surface area of the membrane (1.12 cm^2), and C0 is the initial concentration of drug in the donor chamber. The efflux ratio (ERpermeability) for BL to AP and AP to BL transport was defined by the following equation: […] where Papp (BL–AP) and Papp (AP–BL) are the apparent permeability of drugs from the basolateral (BL) to apical (AP) and AP to BL sides of the monolayer, respectively.
(In general: Passage across Caco-2 layers is used to estimate intestinal permeability.)

Where [5] appears, read: Caco-2, no inhibitor, digoxin 10 μM, TB-2 5 μM, BBR 10 μM, n = 3.

The results in this text go back to paper PMC6353801, “Enhanced Anti-diabetic Effect of Berberine Combined With Timosaponin B2 in Goto-Kakizaki Rats, Associated With Increased Variety and Exposure of Effective Substances Through Intestinal Absorption” (Frontiers in Pharmacology, 2019).

Usually Papp A→B stands for how fast a substance crosses the layer from the apical side. One may read the Papp B→A as the apparent permeability from the basolateral to the apical side of a cell layer.

In the case of `COc1ccc2cc3[n+](cc2c1OC)CCc1cc2c(cc1-3)OCO2` [BBR, berberine], in the data set with GK rats [1], the “FBG levels compared with the vehicle group (in words)” value was “no significant differences” and the “NFBG levels compared with the vehicle group (in words)” value is “no significant differences”. In addition, in the data set on GK rats [2], the “decrease in the AUC of blood glucose in OGTT vs vehicle” value is given as “didn’t significantly decrease” and the “decrease of blood glucose levels in OGTT at 30 min vs vehicle” value is recorded as 24%. The “effect on body weight or food consumption vs vehicle” value in data set [3] (6-week oral treatment) was “no effect”. Besides, the “effect on organ coefficients (liver and kidney) vs vehicle” value in data set [3] (day 42) is on record as “limited”. Besides, the efflux ratio at 120 min in data set [4] (Caco-2, Caco-2, no inhibitor, Papp (BL−AP)/Papp (AP−BL), read-out: ERpermeability (efflux ratio)) was 71.4. In data set [4] (setting [5]), this compound showed a Papp A→B at 120 min of 0.038 ± 0.011 ×10⁻⁶ cm/s and an apparent permeability from basolateral to apical (Papp B→A) at 120 min of 2.71 ± 0.355 ×10⁻⁶ cm/s.
